Where a SMILES comes first, the peptide text is derived from it. [ ]: non-standard residue; d: D form. The star is where a group is joined. DOTA = O=C(O)CN1CCN(CC(=O)O)CCN(CC(=O)*)CCN(CC(=O)O)CC1; 1Nal = N[C@@H](Cc1cccc2ccccc12)C(=O)O; NMeNle = CCCC[C@H](NC)C(=O)O

The record followed here is article PMC8949806, “Automated Synthesis of ^68Ga-Labeled DOTA-MGS8 and Preclinical Characterization of Cholecystokinin-2 Receptor Targeting” (Molecules, 2022).

The nature of the data set: in vivo. The arrangement: species or system BALB/c nude mice. The settings on record: female, BALB/c nude, mouse, iv, total radioactivity. The method, then:
Biodistribution studies were performed in accordance with the ethical standards of the institution and approved by the Austrian Ministry of Science (BMWFW-66.011/0072-V/3b/2019). In vivo studies were carried out in 6–8-week-old female BALB/c nude mice xenografted with A431-CCK2R/A431-mock cells (Charles River, Sulzfeld, Germany; n = 4). For the induction of the tumor xenografts, 150 μL DMEM containing 2 × 10^6 A431-CCK2R and A431-mock cells were injected subcutaneously into the right and left flanks of each mouse. Tumors were allowed to grow for 10–14 days. [^68Ga]Ga-DOTA-MGS8 used in animal studies was prepared as described in the Supplementary Materials (page 2, Figures S1 and S2). To remove any hydrophilic impurities after radiolabeling, the solution was passed through a Sep-Pak® Light C18 cartridge (Waters, Milford, MA) preconditioned with ethanol and physiological saline. [^68Ga]Ga-DOTA-MGS8 was then eluted with 600 µL of a mixture of ethanol and PBS (2/1; v/v) followed by 1100 µL PBS. To this solution, 20 µL of 0.01 M bicarbonate was added for pH adjustment. The final injection solution was diluted with PBS containing 0.5% bovine serum albumin (BSA) to reach an injected radioactivity of ~200 kBq and a total injected peptide amount of ~30 pmol. [^68Ga]Ga-DOTA-MGS8 was administered in 150 µL via a lateral tail vein. The mice were euthanized 1 h p.i. by cervical spine dislocation. […] All organs, including blood and the remaining body, were weighed and their radioactivity was measured using the gamma-counter together with a standard. For the determination of radioactivity in the different tissues, a standard of 10 µL of the injection solution, as well as a 50 µL aliquot of a 1:10 and 1:50 dilution of the injection solution, were measured along with samples taken from the animals. […] The volume injected to each mouse was determined by calculating the difference in weight of the syringe before and after injection. Results were expressed as the percentage of injected activity per gram tissue (% IA/g).

With `CCCC[C@@H](C(=O)N[C@@H](CC(=O)O)C(=O)N[C@@H](Cc1cccc2ccccc12)C(N)=O)N(C)C(=O)[C@H](Cc1c[nH]c2ccccc12)NC(=O)CNC(=O)[C@H](Cc1ccc(O)cc1)NC(=O)[C@@H]1CCCN1C(=O)[C@@H](CCC(=O)O)NC(=O)CN1CCN(CC(=O)O)CCN(CC(=O)O)CCN(CC(=O)O)CC1` [[^68Ga]Ga-DOTA-MGS8, metal not drawn] ({DOTA}-[dE]PYGW[NMeNle]D[1Nal]-NH2), the tissue to tissue ratio at 1 h is, setting by setting: (Tumor-to-blood ratio) 13.4 ± 1.77; (Tumor-to-kidney ratio) 4.41 ± 0.4; (Tumor-to-stomach ratio) 11 ± 2.05.
